Data taken from patent publication US6723710B2, “Compositions for inhibiting arginase activity” (The Trustees of the University of Pennsylvania, priority 1997, dated 2004).
Entries after “also recorded” stand apart in the source; their conditions may differ.

Tests used:
[1] = test system: internal anal sphincter (IAS) smooth muscle; assay: NANC nerve-mediated relaxation of IAS smooth muscle strips by electrical field stimulation; parameters: species or system opossum (Didelphis virginiana); settings: for decrease in basal IAS tension after ABHA: 1×10^−4 molar
Source text: The entire anal canal was isolated carefully by dissection and transferred to a dissecting tray containing oxygenated (95% O2 plus 5% CO2) Krebs' solution. The composition of the Krebs' solution was as follows (in millimolar): NaCl, 118.07; KCl 4.69; […] MgSO4, 1.16; […] NaHCO3, 25 and glucose (Pufahl et al., 1995, Biochemistry 34:1930-1941; […] et al., 1993, Biochem. Biophys. Res. Commun. 196:1558-1565). The anal canal was cleaned of extraneous connective tissue and blood vessels. Following this, the anal canal was opened by making an incision along the longitudinal axis, and was pinned flat with the mucosal side facing up. The mucosa and submucosa were removed by sharp dissection. Circular smooth muscle strips were obtained from the whole circumference of the anal canal and divided into two equal strips (about 1×8 millimeters). Both ends of the muscle strips were secured with silk sutures (4-0: Ethicon Inc., Sommerville, N.J.) and used for the measurement of isometric tension. […] One end of each muscle strip was fixed to the bottom of the muscle bath with a tissue holder and the other end was attached to an isometric force transducer (model FT03; Grass Instruments Co., Quincy, Mass.) in order to measure isometric tension. Smooth muscle tension was recorded using a […] recorder (model […]; Beckman Instruments, Schiller Park, Ill.). […] J. Physiol. 255:[…]-[…]). Only those smooth muscle strips that developed spontaneous and steady tension and relaxed in response to electrical field stimulation (EFS) were used. EFS was delivered, via a pair of platinum wires, from a Grass stimulator (Model S88; Grass Instruments Co., Quincy, Mass.) connected in series to a Med-Lab […] (Med-Lab Instruments, Loveland, Colo.). […] These parameters of EFS are known to cause relaxation of IAS smooth muscle by selective activation of NANC myenteric neurons. Neurally-mediated relaxation of IAS smooth muscle strips was quantified in response to different frequencies of EFS. […] To determine the influence of arginase on NANC nerve-mediated relaxation of IAS, the effects of different doses of arginase on relaxation were first determined. […] The effectiveness of arginase inhibitors (L-OH-Arg and ABHA) on arginase-induced attenuation of EFS-induced IAS relaxation was then tested. Optimal doses of arginase and L-OH-Arg in IAS have been reported ([…] and […]. Pharmacol. Exp. Ther. 282:378-384). In order to determine the selectivity of arginase inhibitors in IAS, their effects on IAS relaxation suppressed by the NO synthase inhibitor L-NNA ([…]) were tested. […] To examine the physiological relevance of arginase inhibitors in IAS relaxation, the influence of selected concentrations of arginase inhibitors on EFS-induced IAS relaxation was examined. […] Each smooth muscle strip served as its own control. […] The results are expressed as means±standard error.

NO synthase = biological target: T1, NO synthase (Homo sapiens, UniProt P29475); assay: Nitric Oxide Synthase-ABHA assay (NO2-/NO3- production); format: biochemical; settings: 0.1 millimolar or 1.0 millimolar ABHA
T1 construct: purchased Biomol
T1 sequence (P29475 whole entry): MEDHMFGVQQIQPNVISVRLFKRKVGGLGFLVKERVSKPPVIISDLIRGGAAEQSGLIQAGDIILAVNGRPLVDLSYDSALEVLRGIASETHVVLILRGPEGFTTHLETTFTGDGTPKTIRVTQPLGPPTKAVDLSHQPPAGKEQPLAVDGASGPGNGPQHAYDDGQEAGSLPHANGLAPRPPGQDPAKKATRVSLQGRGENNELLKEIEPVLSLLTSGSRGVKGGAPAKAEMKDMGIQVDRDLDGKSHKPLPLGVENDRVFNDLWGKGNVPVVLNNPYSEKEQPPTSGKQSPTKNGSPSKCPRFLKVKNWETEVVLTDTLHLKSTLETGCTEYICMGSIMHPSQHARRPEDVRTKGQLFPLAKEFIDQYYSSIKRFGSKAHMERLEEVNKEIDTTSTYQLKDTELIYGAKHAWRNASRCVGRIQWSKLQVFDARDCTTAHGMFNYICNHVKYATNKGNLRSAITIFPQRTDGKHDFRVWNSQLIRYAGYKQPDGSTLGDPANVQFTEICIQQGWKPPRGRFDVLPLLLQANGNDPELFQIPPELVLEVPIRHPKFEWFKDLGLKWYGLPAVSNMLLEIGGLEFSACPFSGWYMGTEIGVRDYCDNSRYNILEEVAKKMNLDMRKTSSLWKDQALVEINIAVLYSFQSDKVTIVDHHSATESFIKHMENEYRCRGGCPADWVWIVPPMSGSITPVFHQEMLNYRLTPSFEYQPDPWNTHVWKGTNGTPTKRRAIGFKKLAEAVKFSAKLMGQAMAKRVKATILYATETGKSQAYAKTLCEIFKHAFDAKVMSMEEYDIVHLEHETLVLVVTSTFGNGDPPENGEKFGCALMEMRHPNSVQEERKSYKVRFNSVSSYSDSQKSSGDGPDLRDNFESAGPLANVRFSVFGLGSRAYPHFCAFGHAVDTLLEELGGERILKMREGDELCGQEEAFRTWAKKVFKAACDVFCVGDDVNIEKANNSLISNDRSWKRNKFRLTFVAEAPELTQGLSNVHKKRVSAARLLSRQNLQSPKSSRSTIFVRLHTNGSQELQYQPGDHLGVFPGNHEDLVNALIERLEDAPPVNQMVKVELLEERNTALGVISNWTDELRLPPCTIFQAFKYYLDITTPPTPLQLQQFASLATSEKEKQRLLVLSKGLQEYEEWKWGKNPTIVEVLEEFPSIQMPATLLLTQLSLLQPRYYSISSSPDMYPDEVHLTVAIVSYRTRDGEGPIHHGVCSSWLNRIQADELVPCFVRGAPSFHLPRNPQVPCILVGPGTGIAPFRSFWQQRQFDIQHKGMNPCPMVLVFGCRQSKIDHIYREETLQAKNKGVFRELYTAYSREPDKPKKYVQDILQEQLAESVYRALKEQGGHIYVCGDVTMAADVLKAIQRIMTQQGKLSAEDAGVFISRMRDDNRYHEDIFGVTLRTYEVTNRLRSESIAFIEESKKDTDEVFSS
Source text: NADPH, FAD, FMN, L-arginine, N-(2-hydroxyethyl)piperazine-N-2-ethanesulfonic acid (HEPES) (6R)-5,6,7,8-tetrahydro-L-biopterin (BH4), aminoguanidine, CaCl2, and phosphodiesterase cyclic nucleotide activator (calmodulin) were purchased from Sigma Chemical Company (St. Louis, Mo.). Neuronal NO synthase was purchased from Biomol, dialyzed to remove beta-mercaptoethanol, and concentrated to 0.1 milligram per milliliter. The nitric oxide synthase colorimetric assay kit was purchased from Calbiochem. Materials were used without further purification. The effect of ABHA on NO synthesis was assayed by monitoring the sum of NO2^− and NO3^− production, as described (Verdon et al., 1995, Anal. Biochem. 224:502-508). The enzyme solution was shaken at 37° C. for 15 minutes with 50 millimolar HEPES (pH 7.5), 100 micromolar NADPH, 4 micromolar FAD, 4 micromolar FMN, 6 micromolar BH4, 100 micromolar L-arginine, 0.0-1.0 millimolar ABHA, and 0.02 milligram per milliliter NO synthase in a final volume of 100 microliters. For experiments in which neuronal NO synthase was used, 1 millimolar CaCl2 and 100 micrograms per milliliter calmodulin were also added. Reactions were stopped by incubating the reaction mixture at 100° C. for 3 minutes. […] Absorbance at 540 nanometers was used to quantify the extent of NOx production.

arginase = biological target: T2, arginase (Rattus norvegicus, UniProt P07824); assay: isothermal titration calorimetry; format: binding; parameters: made in house
T2 sequence (P07824 1-323): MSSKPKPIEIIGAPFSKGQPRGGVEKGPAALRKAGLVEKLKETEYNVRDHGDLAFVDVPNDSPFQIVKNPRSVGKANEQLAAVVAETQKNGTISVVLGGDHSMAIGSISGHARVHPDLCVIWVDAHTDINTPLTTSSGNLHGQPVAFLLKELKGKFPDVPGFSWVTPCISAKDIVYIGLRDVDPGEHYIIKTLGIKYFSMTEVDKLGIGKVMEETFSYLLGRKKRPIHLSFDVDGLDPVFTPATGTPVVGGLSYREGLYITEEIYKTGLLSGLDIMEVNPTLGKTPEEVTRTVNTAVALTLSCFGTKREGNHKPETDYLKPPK
Experimental: All calorimetry experiments were conducted on a MCS isothermal calorimeter from MicroCal, Inc. (Northampton, Mass.). Arginase was exhaustively dialyzed against a solution comprising 100 micromolar MnCl2 and 50 millimolar bicine-NaOH (pH 8.5). […] Prior to the titration experiment, samples were de-gassed under vacuum for 5 minutes. […] The contents of the sample cell were titrated with 30-40 aliquots (2.5 microliters each) of inhibitor (an initial 1 microliters injection was made, but not used in data analysis). After each injection, the heat change was measured and converted to the corresponding enthalpy value. The reaction mixture was continuously stirred at 400 rotations per minute during titration. Control experiments were carried out by titrating the inhibitor into the buffer solution under identical experimental conditions. Data analysis was performed using ORIGIN™ software provided with the instrument. The calorimetric data are presented with the background titrations subtracted from the experimental data. The amount of heat produced per injection was calculated by integration of the area under each peak. The data were fit to the following equation, […]

N[C@@H](CCCCB(O)O)C(=O)O [compound 7, 2(S)-amino-6-boronohexanoic acid]
decrease in basal IAS tension after ABHA ([1]; 0.5 Hertz EFS): 56.5±7.0%
decrease in basal IAS tension after ABHA ([1]; 1 Hertz EFS): 73.6±3.5%
effect on arginase-suppressed EFS-induced IAS relaxation ([1]; exogenous arginase, L-HO-Arg 1×10^−4 molar, listed as ABHA): reversal
augmentation of NANC nerve-mediated IAS relaxation by EFS ([1]; lower frequencies of EFS, listed as ABHA): significant and concentration-dependent augmentation
reversal of L-NNA-suppressed IAS relaxation ([1]; with L-NNA, L-HO-Arg and ABHA 3×10^−4 molar): did not cause any reversal; also recorded: no effect
inhibition of NO synthase (NO synthase): does not inhibit NO synthase; also recorded: no inhibition
Kd (arginase; 100 micromolar MnCl2, 50 millimolar bicine pH 8.5, 25° C., read-out: Kd determined by titration calorimetry): 0.11 µM
association constant (Ka) (arginase; pH 8.5, 25° C.): 8.89×10^6 inverse molar
enthalpy change (ΔH) of binding (arginase; pH 8.5, 25° C.): −12.97 kilocalories per mole
stoichiometry (n), moles bound per mole of arginase monomer (arginase; pH 8.5, 25° C.): 1.07
